IC50 data for 22 molecules are collected here from patent US11998539B2, “Substituted aminoquinolones as DGKalpha inhibitors for immune activation” (Bayer Aktiengesellschaft, priority 2019, dated 2024).

Broadly, the IC50 is the concentration needed to halve the response being measured.

Molecules are shown by their SMILES.

The target in this experiment is DGKα (Homo sapiens (Human), UniProt P23743). The experiment can be described thus: Human DGKα kinase activity inhibition assay (ADP-Glo). The experiment is classed as biochemical. Particulars: recombinant full-length human DGKα, 55 μM ATP, 7 μM 1,2-dioleoyl-sn-glycerol, read-out: IC50 values of examples in in vitro human DGKa kinase activity inhibition assays. In outline: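 Recombinant full-length human DGKα (C-terminal FLAG, from insect cells) phosphorylated 1,2-dioleoyl-sn-glycerol presented in octyl-glucopyranoside micelles. ADP formed was quantified by ADP-Glo luminescence. Compounds were added from 100-fold DMSO stocks.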
DGKα, sequence (P23743 other isoform, or with tags, fused parts or gaps): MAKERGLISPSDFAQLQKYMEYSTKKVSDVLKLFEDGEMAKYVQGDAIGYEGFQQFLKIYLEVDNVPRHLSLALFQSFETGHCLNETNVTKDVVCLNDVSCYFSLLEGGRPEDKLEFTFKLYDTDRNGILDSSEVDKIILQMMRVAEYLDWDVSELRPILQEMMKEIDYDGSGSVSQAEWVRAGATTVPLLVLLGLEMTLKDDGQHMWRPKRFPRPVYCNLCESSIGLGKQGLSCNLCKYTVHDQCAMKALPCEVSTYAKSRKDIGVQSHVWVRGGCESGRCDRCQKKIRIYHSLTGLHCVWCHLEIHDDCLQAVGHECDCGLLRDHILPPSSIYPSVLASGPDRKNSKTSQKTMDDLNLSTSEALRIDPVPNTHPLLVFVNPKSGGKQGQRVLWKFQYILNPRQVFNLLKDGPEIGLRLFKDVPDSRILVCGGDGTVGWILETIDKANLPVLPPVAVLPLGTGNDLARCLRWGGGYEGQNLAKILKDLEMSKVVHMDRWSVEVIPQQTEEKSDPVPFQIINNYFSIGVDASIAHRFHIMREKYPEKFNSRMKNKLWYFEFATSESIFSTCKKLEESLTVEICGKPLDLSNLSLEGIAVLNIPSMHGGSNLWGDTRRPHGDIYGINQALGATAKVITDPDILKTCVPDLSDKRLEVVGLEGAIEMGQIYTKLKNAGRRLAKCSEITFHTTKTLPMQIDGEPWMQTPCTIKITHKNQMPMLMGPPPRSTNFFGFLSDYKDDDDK
A general note: In ADP-Glo the light output rises with the ADP produced.
Take `Cc1ccc2oc(C3CCN(c4c(C#N)c(=O)n(C)c5cc(Br)ccc45)CC3)nc2c1` [Example 281, 7-bromo-1-methyl-4-[4-(5-methyl-1,3-benzoxazol-2-yl)piperidin-1-yl]-2-oxo-1,2-dihydroquinoline-3-carbonitrile]: the IC50 came to 8.9 nM.
The result for `Cn1c(=O)c(C#N)c(N2CCC(C)(c3nc4ccc(OC(F)(F)F)cc4o3)CC2)c2ccccc21` [Example 20, 1-methyl-4-{4-methyl-4-[6-(trifluoromethoxy)-1,3-benzoxazol-2-yl]piperidin-1-yl}-2-oxo-1,2-dihydroquinoline-3-carbonitrile] reads 1.5 nM.
The result for `Cn1c(=O)c(C(N)=O)c(N2CCC(C)(c3nc4ccccc4o3)CC2)c2ccc(Cl)cc21` [Example 297, 4-[4-(1,3-benzoxazol-2-yl)-4-methylpiperidin-1-yl]-7-chloro-1-methyl-2-oxo-1,2-dihydroquinoline-3-carboxamide] reads 0.6 nM.
Consider `Cn1c(=O)c(C(N)=O)c(N2CCC(c3ccn(-c4cccc(Cl)c4)n3)CC2)c2ccccc21` [Example 474, 4-{4-[1-(3-chlorophenyl)-1H-pyrazol-3-yl]piperidin-1-yl}-1-methyl-2-oxo-1,2-dihydroquinoline-3-carboxamide], for which the IC50 amounted to 4.6 nM.
On to `Cn1c(=O)c(C(N)=O)c(N2CCC(c3ccc4c(c3)C3(CCC3)C(=O)N4)CC2)c2ccccc21` [Example 469, 1-methyl-2-oxo-4-[4-(2′-oxo-1′,2′-dihydrospiro[cyclobutane-1,3′-indol]-5′-yl)piperidin-1-yl]-1,2-dihydroquinoline-3-carboxamide], for which the IC50 worked out at 33 nM.
As to `Cc1ccccc1-c1nnc(C2CCN(c3c(C#N)c(=O)n(C)c4ccc(Br)cc34)CC2)o1` [Example 442, 6-bromo-1-methyl-4-{4-[5-(2-methylphenyl)-1,3,4-oxadiazol-2-yl]piperidin-1-yl}-2-oxo-1,2-dihydroquinoline-3-carbonitrile], the IC50 came out at 15 nM.
The result for `Cc1ccc(C2CCN(c3c(C#N)c(=O)n(C)c4ccccc34)CC2)cc1` [Example 83, 1-methyl-4-[4-(4-methylphenyl)piperidin-1-yl]-2-oxo-1,2-dihydroquinoline-3-carbonitrile] reads 4.4 nM; that for `C=C(c1cc2c(N3CCC(c4nc5cc(C)ccc5o4)CC3)c(C#N)c(=O)n(C)c2cc1OC1CCOC1)C(F)(F)F` (racemic) [Example 433, (rac)-1-methyl-4-[4-(5-methyl-1,3-benzoxazol-2-yl)piperidin-1-yl]-2-oxo-7-[(oxolan-3-yl)oxy]-6-(3,3,3-trifluoroprop-1-en-2-yl)-1,2-dihydroquinoline-3-carbonitrile], 8.6 nM.
The result for `Cc1ccc2c(c1)c(N1CCC(c3nc4ccccc4s3)CC1)c(C#N)c(=O)n2C` [Example 174, 4-[4-(1,3-benzothiazol-2-yl)piperidin-1-yl]-1,6-dimethyl-2-oxo-1,2-dihydroquinoline-3-carbonitrile] reads 1.7 nM.
In the case of `Cc1ccc2oc(C3CCN(c4c(C#N)c(=O)n(C)c5cc(F)ccc45)CC3)nc2c1` [Example 238, 7-fluoro-1-methyl-4-[4-(5-methyl-1,3-benzoxazol-2-yl)piperidin-1-yl]-2-oxo-1,2-dihydroquinoline-3-carbonitrile] it was 12 nM; in that of `Cn1c(=O)c(C#N)c(N2CCC(c3nc4ccccc4s3)CC2)c2cccc(F)c21` [Example 154, 4-[4-(1,3-benzothiazol-2-yl)piperidin-1-yl]-8-fluoro-1-methyl-2-oxo-1,2-dihydroquinoline-3-carbonitrile], 34 nM.
With `Cn1c(=O)c(C#N)c(N2CCC(c3nc(-c4cccnc4)no3)CC2)c2ccccc21` [Example 370, 1-methyl-2-oxo-4-{4-[3-(pyridin-3-yl)-1,2,4-oxadiazol-5-yl]piperidin-1-yl}-1,2-dihydroquinoline-3-carbonitrile], the IC50 amounted to 158 nM.
As for `Cc1ccc2oc(C3CCN(c4c(C(N)=O)c(=O)n(C)c5cc(OC6CCOCC6)ccc45)CC3)nc2c1` [Example 479, 1-methyl-4-[4-(5-methyl-1,3-benzoxazol-2-yl)piperidin-1-yl]-7-[(oxan-4-yl)oxy]-2-oxo-1,2-dihydroquinoline-3-carboxamide], the IC50 was 59 nM.
In the case of `Cc1ccccc1-c1noc(C2CCN(c3c(C#N)c(=O)n(C)c4ccccc34)CC2)n1` [Example 348, 1-methyl-4-{4-[3-(2-methylphenyl)-1,2,4-oxadiazol-5-yl]piperidin-1-yl}-2-oxo-1,2-dihydroquinoline-3-carbonitrile] it was 7.9 nM.
Regarding `COc1ccc2c(c1)c(N1CCC(c3nc(-c4cccc(C)c4)no3)CC1)c(C(N)=O)c(=O)n2C` [Example 520, 6-methoxy-1-methyl-4-{4-[3-(3-methylphenyl)-1,2,4-oxadiazol-5-yl]piperidin-1-yl}-2-oxo-1,2-dihydroquinoline-3-carboxamide], the half-maximal inhibitory concentration (IC50) was determined as 37 nM.
The result for `Cc1ccc2oc(C3CCN(c4c(C(N)=O)c(=O)n(C)c5cc(Cl)ccc45)CC3)nc2c1` [Example 301, 7-chloro-1-methyl-4-[4-(5-methyl-1,3-benzoxazol-2-yl)piperidin-1-yl]-2-oxo-1,2-dihydroquinoline-3-carboxamide] reads 1.4 nM; that for `Cc1ccc2oc(C3CCN(c4c(C(N)=O)c(=O)n(C)c5ccc(OCC(C)(F)F)cc45)CC3)nc2c1` [Example 503, 6-(2,2-difluoropropoxy)-1-methyl-4-[4-(5-methyl-1,3-benzoxazol-2-yl)piperidin-1-yl]-2-oxo-1,2-dihydroquinoline-3-carboxamide], 2690 nM.
As to `Cn1c(=O)c(C(N)=O)c(N2CCC(c3nnc(-c4ccccc4)o3)CC2)c2cc(Br)ccc21` [Example 524, 6-bromo-1-methyl-2-oxo-4-[4-(5-phenyl-1,3,4-oxadiazol-2-yl)piperidin-1-yl]-1,2-dihydroquinoline-3-carboxamide], the IC50 is 45 nM.
In the case of `COC1(c2cccc(Cl)c2)CCN(c2c(C(N)=O)c(=O)n(C)c3ccccc23)CC1` [Example 451, 4-[4-(3-chlorophenyl)-4-methoxypiperidin-1-yl]-1-methyl-2-oxo-1,2-dihydroquinoline-3-carboxamide] it was 163 nM.
The result for `Cn1c(=O)c(C#N)c(N2CCC(c3nnc(-c4cccc(C(F)(F)F)c4)o3)CC2)c2cc(Br)ccc21` [Example 435, 6-bromo-1-methyl-2-oxo-4-(4-{5-[3-(trifluoromethyl)phenyl]-1,3,4-oxadiazol-2-yl}piperidin-1-yl)-1,2-dihydroquinoline-3-carbonitrile] reads 4.3 nM.
The result for `Cc1ccc2oc(C3CCN(c4c(C#N)c(=O)n(C)c5cc(OC6CCOC6)ccc45)CC3)nc2c1` (single isomer, unassigned) [Example 380, 1-methyl-4-[4-(5-methyl-1,3-benzoxazol-2-yl)piperidin-1-yl]-2-oxo-7-[(oxolan-3-yl)oxy]-1,2-dihydroquinoline-3-carbonitrile] reads 0.4 nM; that for `Cc1ccc2oc(C3(C)CCN(c4c(C#N)c(=O)n(C)c5cc(OC6COC6)ccc45)CC3)nc2c1` [Example 241, 1-methyl-4-[4-methyl-4-(5-methyl-1,3-benzoxazol-2-yl)piperidin-1-yl]-7-[(oxetan-3-yl)oxy]-2-oxo-1,2-dihydroquinoline-3-carbonitrile], 2.5 nM.
